Like-named read-outs stand apart in the source and are kept apart here.
Test system: U937 leukemia cancer cell line
Assay: Cell viability (phototoxicity) WST-1 assay with and without UV light;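 further: WST-1 absorbance at 480 and 600 nm after 2 h compound preincubation, 20 min UV irradiation (peak 365 nm) or none, then 24 h recovery at 37 °C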
Settings: for activity under the photolytic conditions (in words): UV-A/UV-B light; for IC50: Homo sapiens, U-937, 20 min; for cell viability with increasing concentration of compound, light exposure: 20 minutes light exposure
[1] = read-out: VC50/20, U937 cells, 20 minutes UV light exposure

Procedure: The compounds were dissolved in DMSO (8 mM) and diluted with the cell culture media such that the amount of the DMSO exposed to the cells remained below 0.5% (64 mM). After light exposure, cell viability is assessed using a WST-1 (4-[3-(4-Iodophenyl)-2-(4-nitrophenyI)-2H-5-tetrazolio]-1, 3-benzene disulfonate) cell proliferation assay (Roche Diagnostics, NJ, USA). At the end of 22 hours, WST-1 is added to each well of plate. After 2 hours of incubation, the metabolic activity is quantified by absorbance measurements at 480nm and 600nm using a Synergy 4 plate reader (BioTEK Instruments, VT, USA). The number of viable cells is determined and percent viability is determined:
Viability measurements are analyzed to provide VC50/20 values which is defined as the concentration at which 50% decrease in cell viability is observed when the cells are exposed to light and the photosensitizes for 20 minutes.
Photoxicity of diarylamines were tested for their photo-toxicity in U937 cells (ATCC,VA) a monocytic leukemia cell line. Cells were cultured, harvested and counted with trypan blue exclusion method to ensure 95% viability. The cells were then plated at a density of 20,000 cells/well in flat bottom 96 well plates and incubated overnight. On the following day, dilutions of the compounds to be screened were prepared in complete RPMI media and added to cells followed by a 2-hour incubation. After the preincubation time, the cells were irradiated for 20 minutes with 100 W UV lamp (Model B-100A, UVP, Upland, Calif.) with peak output at 365 nm and a bandwidth of about 50 nm. The light source was not optimized for each compound with respect to power and wavelength. The total power near the surface of the microtiter plate is about 8 mW. The temperature at the surface of the microtiter plates were kept below 37° C. with external air cooling. After light exposure, cells were allowed to recover at 37° C. in a CO2 incubator for 24 h, and thereafter the viability was assessed using a WST-1 (4-[3-(4-Iodophenyl)-2-(4-nitrophenyl)-2H-5-tetrazolio]-1,3-benzene disulfonate) cell proliferation assay (Roche Diagnostics, NJ, USA). At the end of 22 hours, WST-1 was added to each well of plate. After 2 hours of incubation, the metabolic activity was quantified by absorbance measurements at 480 nm and 600 nm using a Synergy 4 plate reader (BioTEK Instruments, VT, USA). The percent viability was calculated as [OD value of treated cells/mean OD value of control cells]×100%). The percent cell viability assay values were then plotted in Graph Pad Prism (Graph Pad Software Inc, La Jolla, Calif.) and VC50/20 values for each compound was obtained using nonlinear regression analysis of the log inhibitor versus response in a 4 parameter curve fit. Each compound was tested for minimum of n=3. The corresponding control conditions for the cell viability assays were: (a) DMSO only (no photosensitizer), no light; (b) DMSO only (no photosensitizer) light; and (c) photosensitizer, no light (dark toxicity).
A general procedure is carried out for measuring cell viability upon exposure of U937 leukemia cells to a number of diarylamino photosensitizers of the invention and light. U937 cells are harvested and counted with trypan blue exclusion method to ensure viability. The cells are then plated at a density of 20,000 cells/well in flat bottom 96 well plates and incubated overnight. On the following day, dilutions of the compounds to be screened are prepared in complete RPMI media and added to cells followed by a 2 hour incubation. After the preincubation time, cells are exposed to UV light for various times and then allowed to recover at 37° C. in a CO2 incubator for 24 h.
The cell viability analysis is carried out using a human myeloid leukemia U937 cell line by the standard WST-1 assay.

Row | SMILES | activity under the photolytic conditions (in words) (U937 cells) | IC50 (read-out: VC50/20) | IC50 [1] | cell viability with increasing concentration of compound, light exposure (U937 cells) | cell viability with increasing concentration of compound, no light exposure (dark toxicity) (U937 cells, no light exposure)
1 | c1ccc(C2c3ccccc3Nc3ccccc32)cc1 [(FX7)] | less active |  |  |  | 
2 | c1ccc2c(c1)Nc1ccccc1S2 [(FX10), phenothiazine] | highly active | 1.39 ± 0.11 µM | ~1.39 µM | substantial decrease in cell viability | 
3 | c1ccc(C2c3ccccc3Nc3ccccc32)cc1 [(FX17), 9-phenylacridan] | most potent | 0.17 ± 0.01 µM | 0.17 µM | substantial decrease in cell viability | 
4 | c1ccc2c(c1)[nH]c1ccccc12 [(FX3), carbazole] | moderately active | 5.56 ± 1.15 µM | ~5 µM | substantial decrease in cell viability | 
5 | CN1c2ccccc2Cc2ccccc21 [(FX19), N-methylacridan] | decreased the activity |  |  |  | 
6 | c1ccc2c(c1)Cc1ccccc1N2 [(FX9), acridan] | very potent | 0.68 ± 0.11 µM | 0.68 µM | substantial decrease in cell viability | no substantial decrease in cell viability
7 | c1ccc2c(c1)Nc1ccccc1O2 [(FX11), Phenoxazine] | weakly active | 14.5 ± 1.54 µM |  | substantial decrease in cell viability | 
8 | c1ccc(Nc2ccccc2)cc1 [(FX20), Diphenylamine] | inactive |  |  |  | 
9 | C1=Cc2ccccc2Nc2ccccc21 [(FX8), 5H-Dibenz[b,f]azepine] | very active | 2.58 ± 1.14 µM | ~2.58 µM | substantial decrease in cell viability | 

Source: US20120289884A1, “Fused Ring Diarylamino Photosensitizers for Phototherapy” (Mallinckrodt LLC, priority 2011, published 2012)
